Converted amounts (≈) assume the structure as drawn.
Experiments:
[1] = test system: Escherichia coli (E. coli) ATCC 25922; assay: Rapid antibiotic susceptibility test with microwell-patterned hydrogel in 96 well plate, time-lapse imaging; format: cell-based
Description: (§1) FIG. 2 is a schematic diagram illustrating a technique for dissociating cell colonies into cells at the level of individual cells and continuously observing the morphological changes of the isolated single cells by utilizing a hydrogel structure according to one embodiment of the present disclosure. Referring to (a) of FIG. 2, a conventional 96 well plate is prepared, and thereafter, a dried microwell-patterned hydrogel is inserted into each well. Referring next to (b) of FIG. 2, a cell culture medium containing bacterial cells, nutrients and antibiotics is introduced into each well containing the dry microwell-patterned hydrogel. At the initial stage of introduction, the bottom microwells of the microwell-patterned hydrogel are not yet seated on the base of the well and the microwell-patterned hydrogel is slightly floating. Thus, the bacterial cells are free to move in and out of each microwell pattern.
(§2) Referring to (c) of FIG. 2, several or tens of minutes after the introduction, the microwell-patterned hydrogel swells and approaches the inner wall of the well. As a result, the top of the microwell-patterned hydrogel is in close contact with the inner sidewall of the well and the bottom of the microwell-patterned hydrogel is seated on and remains attached to the base of the well. At this time, the individual bacterial cell entering the space of each bottom microwell pattern of the microwell-patterned hydrogel is not free to move any further in and out of the microwell pattern and is isolated in the microwell-patterned area due to the pressure of the swollen hydrogel. In a state in which the hydrogel is fully expanded, continuous bacterial morphological changes can be observed after several hours by time-lapse imaging through an objective lens of the optical measurement system. As a result, time-lapse images of the individual bacterial cells can be obtained.
(§3) In the case of the Streptomyces atratus (spore-type actinomycetes) cultures, the final cell concentration of the wells was controlled at 7.5×10^7 CFU/mL with tryptic soy broth (TSB, Sparks, MD) and growth was at 28° C. […] After that, 227.5 μL (91% v/v) of Mueller-Hinton broth (MHB, Fluka Analytical), 2.5 μL (1% v/v) of the antibiotics, and 20 μL (8% v/v) of bacterial cells were mixed and growth was monitored at 37° C.
(§4) In this example, the Clinical Laboratory Standard Institute (CLSI) standard strains, Escherichia coli (E. coli) ATCC 25922 and Staphylococcus aureus (S. aureus) ATCC 29213 were tested with various concentrations of ampicillin and chloramphenicol to determine the minimum inhibitory concentration (MIC) values of the antibiotics. […] The cell growth images were recorded every hour for four hours to observe the change in cell number and morphological change to indicate growth.

[2] = test system: Staphylococcus aureus (S. aureus) ATCC 29213; assay: as above; format: cell-based
Description: as §1, §2, §3, §4

[3] = test system: methicillin-resistant Staphylococcus aureus (MRSA); assay: Rapid antibiotic susceptibility test with microwell-patterned hydrogel structures, running time 4 hours; format: cell-based; conditions: rapid method, running time 4 hours, read-out: minimum inhibitory concentration (MIC)
Description: In the case of the Streptomyces atratus (spore-type actinomycetes) cultures, the final cell concentration of the wells was controlled at 7.5×10^7 CFU/mL with tryptic soy broth (TSB, Sparks, MD) and growth was at 28° C. For the E. coli ATCC 25922, Staphylococcus aureus ATCC 29213, and methicillin resistant Staphylococcus aureus cultures, the initial concentration of bacterial cells injected into each well was set to 3×10^8 CFU/mL with Mueller-Hinton broth (MHB, Fluka Analytical). In order to adjust the concentration of antibiotics, ampicillin (Sigma-Aldrich) and chloramphenicol (Sigma-Aldrich), a two-fold serial dilution method was used. After that, 227.5 μL (91% v/v) of Mueller-Hinton broth (MHB, Fluka Analytical), 2.5 μL (1% v/v) of the antibiotics, and 20 μL (8% v/v) of bacterial cells were mixed and growth was monitored at 37° C.

[4] = test system: methicillin-resistant Staphylococcus aureus (MRSA); assay: Conventional antibiotic susceptibility test using turbidity, running time 18-24 hours; format: cell-based; conditions: conventional method using turbidity, running time 18-24 hours, read-out: minimum inhibitory concentration (MIC)
From the text: Although numerous AST approaches have been studied, molecular and cell culturing systems are typical. The molecular AST method can obtain results quickly, in just a few hours, but can be adopted only in restrictive conditions with analytical equipment such as PCR machine and requires much more research to be used widely in clinical applications. In contrast with the molecular method, the cell culturing system is accurate and most used in the clinical arena, so it is regarded as the standard AST system. The most commonly employed AST process in the cell culturing system is the liquid microdilution method. This traditional AST system requires 18˜24 hours because the liquid microdilution method determines the minimum inhibitory concentration (MIC) of the relevant antibiotics by identifying a change in turbidity of culture wells. The turbidity is indirectly measured by optical density (OD) coming from cell growth, which is proportional to the concentration of the bacterial cells in the culture well. However, the OD evaluation is not sensitive to the bacterial cell population expansion when the concentration of the bacterial cells is conspicuously low. Thus, it needs 18-24 hours to accurately distinguish whether the bacterial cells grow or not under particular concentrations of antibiotics.

[5] = test system: E. coli ATCC 25922; conditions: cited from earlier work
[6] = test system: S. aureus ATCC 29213; conditions: cited from earlier work

| MIC [3] [µg/mL] | MIC [4] [µg/mL] | MIC ([1]; Escherichia coli, ATCC25922, 4 h, E. coli ATCC 25922, hydrogel device, images every hour for four hours, 37° C., read-out: minimum inhibitory concentration (MIC)) [µg/mL] | MIC ([2]; Staphylococcus aureus, ATCC29213, 4 h, S. aureus ATCC 29213, hydrogel device, images every hour for four hours, 37° C., read-out: minimum inhibitory concentration (MIC)) [µg/mL] | SMILES | concentration at which cells could not divide and showed filamentary growth ([1]; E. coli, optical microscopic images, FIG. 8 (a)) [µg/mL] | concentration at which bacterial cells could not divide or grow ([2]; S. aureus, optical microscopic images, FIG. 8 (b)) [µg/mL] | CLSI minimum inhibitory concentration (MIC) range [5] [µg/mL] | CLSI minimum inhibitory concentration (MIC) range [6] [µg/mL] |
| --- | --- | --- | --- | --- | --- | --- | --- | --- |
| 64 (≈ 183 µM) | 64 (≈ 183 µM) | – | – | CC1(C)S[C@@H]2[C@H](NC(=O)[C@H](N)c3ccccc3)C(=O)N2[C@H]1C(=O)O [ampicillin] | ≥ 2 | ≥ 2 | 2 to 8 | 0.5 to 2 |
| – | – | 8 (≈ 24.8 µM) | 4 (≈ 12.4 µM) | O=C(N[C@H](CO)[C@H](O)c1ccc([N+](=O)[O-])cc1)C(Cl)Cl [chloramphenicol] | – | – | 2 to 8 | 2 to 8 |

— patent US12059682B2, “Method for isolation and morphological analysis of cells” (EzDiaTech Inc., priority 2018, dated 2024)
